Source: publication PMC6044503 (ACS Omega, 2017)
Several values for one entry are separate records, joined by “and”; a condition that tells them apart may be missing. Equal entries are not always repeated. Where a SMILES comes first, the peptide text is derived from it. [ ]: non-standard residue; d: D form. The star is where a group is joined. 2Nal = N[C@@H](Cc1ccc2ccccc2c1)C(=O)O; Cyclohexanecarbonyl = O=C(C1CCCCC1)*; Cha = N[C@@H](CC1CCCCC1)C(=O)O; 4Amb = NCc1ccc(C(=O)O)cc1; Nle = CCCC[C@H](N)C(=O)O; Aib = CC(C)(N)C(=O)O; Bz = O=C(c1ccccc1)*

What was measured:
human Y2R [1] = molecular target: T1, human Y2R (Homo sapiens, UniProt P49146); experiment: biochemical; assay type: binding
T1 sequence (P49146 1-381): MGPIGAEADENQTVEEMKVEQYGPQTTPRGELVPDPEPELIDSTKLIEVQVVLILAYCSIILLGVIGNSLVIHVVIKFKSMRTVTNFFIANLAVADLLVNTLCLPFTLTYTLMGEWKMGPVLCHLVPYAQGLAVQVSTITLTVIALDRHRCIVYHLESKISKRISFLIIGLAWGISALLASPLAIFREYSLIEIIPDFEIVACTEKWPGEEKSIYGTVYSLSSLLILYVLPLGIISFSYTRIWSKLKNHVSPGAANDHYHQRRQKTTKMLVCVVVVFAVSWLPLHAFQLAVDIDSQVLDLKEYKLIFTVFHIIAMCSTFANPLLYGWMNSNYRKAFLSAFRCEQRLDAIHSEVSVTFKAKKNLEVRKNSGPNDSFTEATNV

human Y2R [2] = molecular target: T1, human Y2R; experiment: biochemical; assay type: biochemical
male C57BL/6J mice = experiment: Food intake assay, bolus ip administration in lean mice; assay type: in vivo, mouse; settings: for % food intake inhibition: vs saline; for % food intake inhibition / % food intake inhibition (cumulative): mean ± SD; for minimum effective dose (food intake reduction): ip administration, lean mice
[3] = Stability in 20% mouse serum/PBS; assay type: in vitro ADME; settings: for remaining at 0.5 h: mouse, 20% mouse serum in PBS
[4] = bolus ip 2000 nmol/kg, 3 h after administration
[5] = bolus ip 250 nmol/kg, 3 h after administration
[6] = bolus ip 500 nmol/kg, 3 h after administration
[7] = bolus ip 1000 nmol/kg, 3 h after administration

Compound | IC50 (human Y2R [1]) [nM] | EC50 (human Y2R [2]) [nM] | remaining at 0.5 h [3] [%] | % food intake inhibition (male C57BL/6J mice; [6]) | further results
CC[C@H](C)[C@H](NC(=O)[C@H](Cc1ccc(O)cc1)NC(=O)[C@H](C)NC(=O)[C@H](CCCNC(=N)N)NC(=O)c1ccccc1)C(=O)N[C@@H](CC(N)=O)C(=O)N[C@@H](CC(C)C)C(=O)N[C@H](C(=O)N[C@H](C(=O)N[C@@H](CCCNC(=N)N)C(=O)N[C@@H](CCC(N)=O)C(=O)N[C@@H](CCCNC(=N)N)C(=O)N[C@@H](CC1CCCCC1)C(N)=O)[C@@H](C)O)[C@@H](C)CC [Compound 2] (Bz-RAYINLITRQR[Cha]-NH2) | 3.2 | 1.1 | 53 | – | % food intake inhibition (male C57BL/6J mice; [4]): 21 ± 5%
CC[C@H](C)[C@H](NC(=O)[C@H](CC1CCCCC1)NC(=O)[C@H](Cc1c[nH]cn1)NC(=O)[C@H](CCCNC(=N)N)NC(=O)c1ccccc1)C(=O)N[C@@H](CC(N)=O)C(=O)N[C@@H](Cc1c[nH]c2ccccc12)C(=O)N[C@H](C(=O)N[C@H](C(=O)N[C@@H](CCCNC(=N)N)C(=O)N[C@@H](CCC(N)=O)C(=O)N[C@@H](CCCNC(=N)N)C(=O)N[C@@H](CC1CCCCC1)C(N)=O)[C@@H](C)O)[C@@H](C)CC [Compound 5] (Bz-RH[Cha]INWITRQR[Cha]-NH2) | 9.8 | 2.3 | 93 | 8 ± 7% | % food intake inhibition (male C57BL/6J mice; [5]): 10 ± 4%; % food intake inhibition (male C57BL/6J mice; [7]): 40 ± 2%; % food intake inhibition (male C57BL/6J mice; [4]): 65 ± 5%
CC[C@H](C)[C@H](NC(=O)[C@H](CC1CCCCC1)NC(=O)[C@H](Cc1c[nH]cn1)NC(=O)[C@H](CCCNC(=N)N)NC(=O)c1ccccc1)C(=O)N[C@@H](CC(N)=O)C(=O)N[C@@H](CC(C)C)C(=O)N[C@H](C(=O)N[C@H](C(=O)N[C@@H](CCCNC(=N)N)C(=O)N[C@@H](CCC(N)=O)C(=O)N[C@@H](CCCNC(=N)N)C(=O)N[C@@H](CC1CCCCC1)C(N)=O)[C@@H](C)O)[C@@H](C)CC [Compound 4] (Bz-RH[Cha]INLITRQR[Cha]-NH2) | 7.2 | 3.6 | 102 | – | % food intake inhibition (male C57BL/6J mice; [7]): 34 ± 6%; metabolites in mouse serum ([3]; within 30 min in 20% mouse serum/PBS): did not yield any apparent metabolites
CC[C@H](C)[C@H](NC(=O)[C@H](Cc1ccc2ccccc2c1)NC(=O)[C@H](Cc1c[nH]cn1)NC(=O)[C@H](CCCNC(=N)N)NC(=O)c1ccccc1)C(=O)N[C@@H](CC(N)=O)C(=O)N[C@@H](Cc1c[nH]c2ccccc12)C(=O)N[C@H](C(=O)N[C@H](C(=O)N[C@@H](CCCNC(=N)N)C(=O)N[C@@H](CCC(N)=O)C(=O)N[C@@H](CCCNC(=N)N)C(=O)N[C@@H](CC1CCCCC1)C(N)=O)[C@@H](C)O)[C@@H](C)CC [Compound 15] (Bz-RH[2Nal]INWITRQR[Cha]-NH2) | 19 | 7.3 | 100 | 19 ± 7% | –
CC[C@H](C)[C@H](NC(=O)[C@H](CC1CCCCC1)NC(=O)[C@H](Cc1c[nH]cn1)NC(=O)[C@H](CCCNC(=N)N)NC(=O)C1CCCCC1)C(=O)N[C@@H](CC(N)=O)C(=O)N[C@@H](Cc1c[nH]c2ccccc12)C(=O)NC(C)(C)C(=O)N[C@H](C(=O)N[C@@H](CCCNC(=N)N)C(=O)N[C@@H](CCC(N)=O)C(=O)N[C@@H](CCCNC(=N)N)C(=O)N[C@@H](CC1CCCCC1)C(N)=O)[C@@H](C)O [Compound 17] (Cyclohexanecarbonyl-RH[Cha]INW[Aib]TRQR[Cha]-NH2) | 5.7 | 1.9 | – | 24 ± 5% | –
CC(C)C[C@H](NC(=O)[C@H](CC(N)=O)NC(=O)[C@H](Cc1c[nH]c2ccccc12)NC(=O)[C@H](CC1CCCCC1)NC(=O)[C@H](Cc1c[nH]cn1)NC(=O)[C@H](CCCNC(=N)N)NC(=O)c1ccccc1)C(=O)NC(C)(C)C(=O)N[C@H](C(=O)N[C@@H](CCCNC(=N)N)C(=O)N[C@@H](CCC(N)=O)C(=O)N[C@@H](CCCNC(=N)N)C(=O)N[C@@H](CC1CCCCC1)C(N)=O)[C@@H](C)O [Compound 18] (Bz-RH[Cha]WNL[Aib]TRQR[Cha]-NH2) | 6.4 | 1.6 | – | 2 ± 8% | –
CCCC[C@H](NC(=O)[C@H](CC(C)C)NC(=O)[C@H](CC(N)=O)NC(=O)[C@@H](NC(=O)[C@H](CC1CCCCC1)NC(=O)[C@H](Cc1c[nH]cn1)NC(=O)[C@H](CCCNC(=N)N)NC(=O)c1ccccc1)[C@@H](C)CC)C(=O)N[C@H](C(=O)N[C@@H](CCCNC(=N)N)C(=O)N[C@@H](CCC(N)=O)C(=O)N[C@@H](CCCNC(=N)N)C(=O)N[C@@H](CC1CCCCC1)C(N)=O)[C@@H](C)O [Compound 7] (Bz-RH[Cha]INL[Nle]TRQR[Cha]-NH2) | 13 | 2.4 | – | – | % food intake inhibition (male C57BL/6J mice; [7]): 12 ± 5%
CC(C)C[C@H](NC(=O)[C@H](CC(N)=O)NC(=O)[C@H](CC1CCCCC1)NC(=O)[C@H](CC1CCCCC1)NC(=O)[C@H](Cc1cnc[nH]1)NC(=O)[C@H](CCCNC(=N)N)NC(=O)c1ccc(CN)cc1)C(=O)NC(C)(C)C(=O)N[C@H](C(=O)N[C@@H](CCCNC(=N)N)C(=O)N[C@@H](CCC(N)=O)C(=O)N[C@@H](CCCNC(=N)N)C(=O)N[C@@H](CC1CCCCC1)C(N)=O)[C@@H](C)O [Compound 24] (H-[4Amb]RH[Cha][Cha]NL[Aib]TRQR[Cha]-NH2) | 0.65 | 0.48 | – | 29 ± 7% | –
CC(C)C[C@H](NC(=O)[C@H](CC(N)=O)NC(=O)[C@H](CC1CCCCC1)NC(=O)[C@H](CC1CCCCC1)NC(=O)[C@H](Cc1c[nH]cn1)NC(=O)[C@H](CCCNC(=N)N)NC(=O)c1ccccc1)C(=O)NC(C)(C)C(=O)N[C@H](C(=O)N[C@@H](CCCNC(=N)N)C(=O)N[C@@H](CCC(N)=O)C(=O)N[C@@H](CCCNC(=N)N)C(=O)N[C@@H](CC1CCCCC1)C(N)=O)[C@@H](C)O [Compound 21, benzoyl-[Cha^27,28,36,Aib^31]PYY(25–36)] (Bz-RH[Cha][Cha]NL[Aib]TRQR[Cha]-NH2) | – | – | – | 49% and 49 ± 4% | binding affinity, fold lower than that of PYY3–36 (human Y2R [1]): more than 10 fold; agonist activity, fold lower than that of PYY3–36 (human Y2R [2]): more than 10 fold; % food intake inhibition (male C57BL/6J mice; [5]): 32 ± 3%; % food intake inhibition (cumulative) (male C57BL/6J mice; ip 3 nmol/kg, 3 h after administration): –1 ± 6%; % food intake inhibition (cumulative) (male C57BL/6J mice; ip 3 nmol/kg, 6 h after administration): –1 ± 2%; % food intake inhibition (cumulative) (male C57BL/6J mice; ip 3 nmol/kg, 24 h after administration): –7 ± 5%; % food intake inhibition (cumulative) (male C57BL/6J mice; ip 30 nmol/kg, 3 h after administration): 20 ± 6%; % food intake inhibition (cumulative) (male C57BL/6J mice; ip 30 nmol/kg, 6 h after administration): 18 ± 3%; % food intake inhibition (cumulative) (male C57BL/6J mice; ip 30 nmol/kg, 24 h after administration): –2 ± 3%; % food intake inhibition (cumulative) (male C57BL/6J mice; ip 300 nmol/kg, 3 h after administration): 47 ± 3%; % food intake inhibition (cumulative) (male C57BL/6J mice; ip 300 nmol/kg, 6 h after administration): 45 ± 2%; % food intake inhibition (cumulative) (male C57BL/6J mice; ip 300 nmol/kg, 24 h after administration): 8 ± 3%; minimum effective dose (food intake reduction) (male C57BL/6J mice; food intake 3 and 6 h after dosing): 30 nmol/kg; minimum effective dose (food intake reduction) (male C57BL/6J mice; mass equivalent of 30 nmol/kg): ca. 52 μg/kg
CC(C)C[C@H](NC(=O)[C@H](CC(N)=O)NC(=O)[C@H](CC1CCCCC1)NC(=O)[C@H](Cc1ccc2ccccc2c1)NC(=O)[C@H](Cc1c[nH]cn1)NC(=O)[C@H](CCCNC(=N)N)NC(=O)C1CCCCC1)C(=O)NC(C)(C)C(=O)N[C@H](C(=O)N[C@@H](CCCNC(=N)N)C(=O)N[C@@H](CCC(N)=O)C(=O)N[C@@H](CCCNC(=N)N)C(=O)N[C@@H](CC1CCCCC1)C(N)=O)[C@@H](C)O [Compound 29] (Cyclohexanecarbonyl-RH[2Nal][Cha]NL[Aib]TRQR[Cha]-NH2) | 18 | 14 | – | 28 ± 8% | –
CC(C)C[C@H](NC(=O)[C@H](CC(N)=O)NC(=O)[C@H](Cc1ccc2ccccc2c1)NC(=O)[C@H](CC1CCCCC1)NC(=O)[C@H](Cc1c[nH]cn1)NC(=O)[C@H](CCCNC(=N)N)NC(=O)c1ccccc1)C(=O)NC(C)(C)C(=O)N[C@H](C(=O)N[C@@H](CCCNC(=N)N)C(=O)N[C@@H](CCC(N)=O)C(=O)N[C@@H](CCCNC(=N)N)C(=O)N[C@@H](CC1CCCCC1)C(N)=O)[C@@H](C)O [Compound 20] (Bz-RH[Cha][2Nal]NL[Aib]TRQR[Cha]-NH2) | 29 | 7.5 | – | 18 ± 2% | –
